Converted amounts (≈) assume the structure as drawn.
Columns and labels:
S. aureus [1] = assay: Peritonitis-sepsis model; format: in vivo, ICR mice; details: single use, i.p., 24 h postinfection, vs vehicle
Protocol: Peritonitis-sepsis model. Six to seven-week-old female ICR mice were included. […] Mice were injected with 500 μL of the suspension in the presence of 5% mucin by i.p.. An hour post-infection, the mice were administered with: 1) EL+ethanol, 2) […]-0546 (30 mg/kg), and 3) STK848198 (30 mg/kg) alone or in combination with ampicillin (AMP, 25 mg/kg)^38 or amikacin (AMK, 25 mg/kg).

S. aureus ATCC 43300 [2] = assay: Periprosthetic joint infection (PJI) model; format: in vivo, ICR mice; details: day 7, alone or in combination, i.p.
S. aureus [3] = assay: MIC determination by microbroth dilution; format: cell-based, Staphylococcus aureus; details: for antimicrobial activity (in words): structure-activity relationship of C218-0546 analogs (Figure S1)
Protocol: Minimal inhibitory concentration (MIC) determination. The detection of MIC was performed by the microbroth dilution method with reference to the previously report by Wang et al^2. Briefly, the fresh bacterial suspension was adjusted to a McF standard equivalent of 0.5 (~1.5 × 10^8 CFU/mL) and then 100-fold diluted with MH broth. Fifty microliters of bacterial suspension with equal volume of serially diluted compounds (1-128 µg/mL) were added into a 96-well cell plate (Corning Costar, the United States) and incubated at 37°C for 16-18 h. The bacterial suspension without compounds was used as a negative control. The lowest concentration that inhibited visible bacterial growth was considered as the value of MIC.

S. aureus ATCC 43300 [4] = assay: One-step resistance assay (spontaneous resistance frequency); format: cell-based; details: 1◊MIC
Protocol: Resistance inducing assay. Consecutive and one-step resistance experiments were performed to assess the resistance-inducing ability of the compounds against S. aureus. For consecutive resistance assay, the MICs of compounds and ciprofloxacin (CIP) were determined on the first day. […] Subsequently, the equal volume of bacterial suspension was added to the serial concentrations of compounds or CIP into a 96-well plate, the new MICs were recorded every 24h for a total of 15 days. After 15 days of passages, the CIP-induced resistant S. aureus strains were obtained. And the antimicrobial activity of the compounds against the CIP-induced strains were assessed by microdilution assay as described above. For one-step resistance assay, overnight cultured S. aureus was adjusted to a final concentration of approximately OD630=0.5 with sterile saline. One hundred microliters of the bacterial suspension were uniformly spread in pre-prepared MH agar plates containing a specific concentration of compounds. Rifampicin (RFP) was used as a positive control. The viable cells were counted on the plates after incubation at 37°C for 48h. The frequency of spontaneous drug resistance mutation was defined as the ratio of the number of resistant CFU counts to the initial CFU counts^3.

Structure (SMILES): CC1(C)S[C@@H]2[C@H](NC(=O)[C@H](N)c3ccccc3)C(=O)N2[C@H]1C(=O)O [AMP, ampicillin, reference compound]
- bacterial loads in organs (S. aureus [1]): no statistical difference
- bacterial loads in the joint and its surrounding tissue (S. aureus ATCC 43300 [2]): reduce the bacterial loads

Structure (SMILES): Cc1ccc(CNC(=O)c2c[nH]n3c(=O)c(Cc4ccc(Cl)cc4)c(C)nc23)cc1 [C218-0468]
- antimicrobial activity (in words) (S. aureus [3]): did not optimize the MIC values

Structure (SMILES): CCCCCCCCCC(=O)N[C@@H](Cc1c[nH]c2ccccc12)C(=O)N[C@H](CC(N)=O)C(=O)N[C@@H](CC(=O)O)C(=O)N[C@@H]1C(=O)NCC(=O)N[C@@H](CCCN)C(=O)N[C@@H](CC(=O)O)C(=O)N[C@H](C)C(=O)N[C@@H](CC(=O)O)C(=O)NCC(=O)N[C@H](CO)C(=O)N[C@@H]([C@H](C)CC(=O)O)C(=O)N[C@@H](CC(=O)c2ccccc2N)C(=O)O[C@@H]1C [DAP, daptomycin]
- MIC (S. aureus [3]; ATCC 25923): 1 µg/mL (≈ 0.617 µM)
- MIC (S. aureus [3]; ATCC 43300): 1 µg/mL (≈ 0.617 µM)
- MIC (S. aureus [3]; LZB1): 1 µg/mL (≈ 0.617 µM)
- MIC (S. aureus [3]; Newman): 2 µg/mL (≈ 1.23 µM)
- MIC (S. aureus [3]; R0645): 2 µg/mL (≈ 1.23 µM)
- MIC (S. aureus [3]; R82174): 2 µg/mL (≈ 1.23 µM)
- MIC (S. aureus [3]; SA1901): 1 µg/mL (≈ 0.617 µM)
- MIC (S. aureus [3]; SA1902): 1 µg/mL (≈ 0.617 µM)
- MIC (S. aureus [3]; SA1909): 1 µg/mL (≈ 0.617 µM)
- MIC (S. aureus [3]; SA1910): 1 µg/mL (≈ 0.617 µM)
- MIC (S. aureus [3]; SA1911): 2 µg/mL (≈ 1.23 µM)
- MIC (S. aureus [3]; SA1912): 1 µg/mL (≈ 0.617 µM)
- MIC (S. aureus [3]; SA1913): 1 µg/mL (≈ 0.617 µM)
- MIC (S. aureus [3]; SA1914): 2 µg/mL (≈ 1.23 µM)
- MIC (S. aureus [3]; SA1915): 1 µg/mL (≈ 0.617 µM)
- MIC (S. aureus [3]; SAJ1 (VISA)): 32 µg/mL (≈ 19.7 µM)
- MIC (S. aureus [3]; USA300): 1 µg/mL (≈ 0.617 µM)

Structure (SMILES): CO[C@H]1/C=C/O[C@@]2(C)Oc3c(C)c(O)c4c(O)c(c(/C=N/N5CCN(C)CC5)c(O)c4c3C2=O)NC(=O)/C(C)=C\C=C\[C@H](C)[C@H](O)[C@@H](C)[C@@H](O)[C@@H](C)[C@H](OC(C)=O)[C@@H]1C [RFP, Rifampicin]
- Spontaneous resistance frequency (mean±SD) (S. aureus ATCC 43300 [4]): (2.83±2.9) ×10^-7

Structure (SMILES): Cc1nc2c(C#N)c[nH]n2c(=O)c1Cc1ccccc1 [STK584829]
- antimicrobial activity (in words) (S. aureus [3]): vanished antimicrobial activity

Structure (SMILES): Cc1nc2oc3ccccc3c(=O)c2c2nc3ccccc3n12 [STK585953]
- antimicrobial activity (in words) (S. aureus [3]): reduce the antimicrobial ability

Structure (SMILES): CN[C@H](CC(C)C)C(=O)N[C@H]1C(=O)N[C@@H](CC(N)=O)C(=O)N[C@H]2C(=O)N[C@H]3C(=O)N[C@H](C(=O)N[C@H](C(=O)O)c4cc(O)cc(O)c4-c4cc3ccc4O)[C@H](O)c3ccc(c(Cl)c3)Oc3cc2cc(c3O[C@@H]2O[C@H](CO)[C@@H](O)[C@H](O)[C@H]2O[C@H]2C[C@](C)(N)[C@H](O)[C@H](C)O2)Oc2ccc(cc2Cl)[C@H]1O [VAN, vancomycin]
- MIC (S. aureus [3]; ATCC 25923): 1 µg/mL (≈ 0.69 µM)
- MIC (S. aureus [3]; ATCC 43300): 1 µg/mL (≈ 0.69 µM)
- MIC (S. aureus [3]; LZB1): 1 µg/mL (≈ 0.69 µM)
- MIC (S. aureus [3]; Newman): 2 µg/mL (≈ 1.38 µM)
- MIC (S. aureus [3]; R0645): 1 µg/mL (≈ 0.69 µM)
- MIC (S. aureus [3]; R82174): 1 µg/mL (≈ 0.69 µM)
- MIC (S. aureus [3]; SA1901): 1 µg/mL (≈ 0.69 µM)
- MIC (S. aureus [3]; SA1902): 0.5 µg/mL (≈ 0.345 µM)
- MIC (S. aureus [3]; SA1909): 1 µg/mL (≈ 0.69 µM)
- MIC (S. aureus [3]; SA1910): 1 µg/mL (≈ 0.69 µM)
- MIC (S. aureus [3]; SA1911): 1 µg/mL (≈ 0.69 µM)
- MIC (S. aureus [3]; SA1912): 1 µg/mL (≈ 0.69 µM)
- MIC (S. aureus [3]; SA1913): 1 µg/mL (≈ 0.69 µM)
- MIC (S. aureus [3]; SA1914): 1 µg/mL (≈ 0.69 µM)
- MIC (S. aureus [3]; SA1915): 1 µg/mL (≈ 0.69 µM)
- MIC (S. aureus [3]; SAJ1 (VISA)): 4 µg/mL (≈ 2.76 µM)
- MIC (S. aureus [3]; USA300): 1 µg/mL (≈ 0.69 µM)
